{
  "source": "patent US4629782A",
  "about": "“Crystalline form of N-acetylmuramyl-L-α-aminobutyryl-D-isoglutamine” (Syntex (U.S.A.) Inc., priority 1984, dated 1986)",
  "key": {"[1]": {"experiment": "Hygroscopicity, visual comparison at 76% relative humidity and ambient temperature", "type": "physicochemical", "settings": "76% relative humidity, ambient temperature, visual observation", "from_the_text": "The crystalline monohydrate of this invention is less hygroscopic than amorphous ABU-MDP. This is readily observed by visually comparing samples of each in separate containers at 76% relative humidity and ambient temperature."}, "[2]": {"experiment": "Thermogravimetric analysis (TGA) after vacuum drying and exposure to air", "type": "physicochemical", "settings": "dried under house vacuum 12 hours, exposed to air about 3 hours; 1.5% initial weight loss attributed to surface water", "description": "The mole ratio of water to ABU-MDP in the crystalline monohydrate of formula (1) was determined by thermogravimetric analysis (TGA). A small amount of the monohydrate prepared in accordance with Example II was dried under \"house\" vacuum for 12 hours and then exposed to air for about 3 hours. […] This analysis was conducted with a Perkin Elmer TGS-2 thermogravimetric balance. The heating rate was 2.5° C. per minute from 40° C. to 160° C. A dry nitrogen purge was maintained throughout each run."}},
  "data": [
    {"substance": "N-acetylmuramyl-L-α-aminobutyryl-D-isoglutamine [Amorphous ABU-MDP, reference compound]", "values": [
      {"measurement": "Hygroscopicity: physical state on exposure to humidity", "setting": "[1]", "result": "turns into a syrupy solution within about an hour"}
    ]},
    {"substance": "acetylmuramyl-L-α-aminobutyryl-D-isoglutamine monohydrate [Crystalline monohydrate]", "values": [
      {"measurement": "Hygroscopicity: physical state on exposure to humidity", "setting": "[1]", "result": "remains a solid"},
      {"measurement": "Hygroscopicity indicated by TGA", "setting": "[2]", "result": "slightly hygroscopic"}
    ]}
  ]
}
